Test results reported in ChEMBL document CHEMBL2150973, “Dual inhibitors for aspartic proteases HIV-1 PR and renin: advancements in AIDS-hypertension-diabetes linkage via molecular dynamics, inhibition assays, and binding free energy calculations” (J Med Chem, 2012).

Tested on: Human immunodeficiency virus 1
Assay: microbe, parasite or virus in culture

## CC(C)CN(C[C@@H](O)[C@H](Cc1ccccc1)NC(=O)O[C@H]1CO[C@H]2OCC[C@H]21)S(=O)(=O)c1ccc(N)cc1
  IC90: 4.1 nM
